From patent US10328054B2, “Substituted pyrrolidines as mGluR5 antagonists” (Hua Medicine (Shanghai) Ltd., priority 2015, dated 2019)

Target: recombinant rat mGluR5 (Rattus norvegicus (Rat), UniProt P31424)
Experiment: Functional calcium flux assay (FLIPR)
Format: cell-based
Settings: HEK293 cells stably expressing recombinant rat mGluR5; inhibition of glutamate-evoked [Ca2+]i increase, 15 min incubation of test compound
Protocol: For functional assays, HEK293 cells stably expressing recombinant rat mGluR5 were seeded in 384-well plates and dye loaded using Fluo-8. Cells were then washed to remove the un-incorporated dye. Antagonist evaluation was performed following a 15 min incubation of the test compound followed by the addition of submaximal concentration of glutamate. Intracellular calcium ([Ca^2+]i) measurements were performed using a fluorometric imaging plate reader (FLIPR, Molecular Devices). The glutamate-evoked increase in [Ca^2+]i in the presence of the test compounds was compared to the response to glutamate alone (the positive control). Antagonist inhibition curves were fitted with a 4-parameter logistic equation giving IC50 values, and Hill coefficients using an iterative nonlinear curve fitting algorithm.
The tables below provide IC50 data in this assay. In the activity column, A=IC50>1,000 and <5,000 nM; B=IC50>500 and <1,000 nM and C=IC50<500 nM.

recombinant rat mGluR5, sequence (P31424 21-1203): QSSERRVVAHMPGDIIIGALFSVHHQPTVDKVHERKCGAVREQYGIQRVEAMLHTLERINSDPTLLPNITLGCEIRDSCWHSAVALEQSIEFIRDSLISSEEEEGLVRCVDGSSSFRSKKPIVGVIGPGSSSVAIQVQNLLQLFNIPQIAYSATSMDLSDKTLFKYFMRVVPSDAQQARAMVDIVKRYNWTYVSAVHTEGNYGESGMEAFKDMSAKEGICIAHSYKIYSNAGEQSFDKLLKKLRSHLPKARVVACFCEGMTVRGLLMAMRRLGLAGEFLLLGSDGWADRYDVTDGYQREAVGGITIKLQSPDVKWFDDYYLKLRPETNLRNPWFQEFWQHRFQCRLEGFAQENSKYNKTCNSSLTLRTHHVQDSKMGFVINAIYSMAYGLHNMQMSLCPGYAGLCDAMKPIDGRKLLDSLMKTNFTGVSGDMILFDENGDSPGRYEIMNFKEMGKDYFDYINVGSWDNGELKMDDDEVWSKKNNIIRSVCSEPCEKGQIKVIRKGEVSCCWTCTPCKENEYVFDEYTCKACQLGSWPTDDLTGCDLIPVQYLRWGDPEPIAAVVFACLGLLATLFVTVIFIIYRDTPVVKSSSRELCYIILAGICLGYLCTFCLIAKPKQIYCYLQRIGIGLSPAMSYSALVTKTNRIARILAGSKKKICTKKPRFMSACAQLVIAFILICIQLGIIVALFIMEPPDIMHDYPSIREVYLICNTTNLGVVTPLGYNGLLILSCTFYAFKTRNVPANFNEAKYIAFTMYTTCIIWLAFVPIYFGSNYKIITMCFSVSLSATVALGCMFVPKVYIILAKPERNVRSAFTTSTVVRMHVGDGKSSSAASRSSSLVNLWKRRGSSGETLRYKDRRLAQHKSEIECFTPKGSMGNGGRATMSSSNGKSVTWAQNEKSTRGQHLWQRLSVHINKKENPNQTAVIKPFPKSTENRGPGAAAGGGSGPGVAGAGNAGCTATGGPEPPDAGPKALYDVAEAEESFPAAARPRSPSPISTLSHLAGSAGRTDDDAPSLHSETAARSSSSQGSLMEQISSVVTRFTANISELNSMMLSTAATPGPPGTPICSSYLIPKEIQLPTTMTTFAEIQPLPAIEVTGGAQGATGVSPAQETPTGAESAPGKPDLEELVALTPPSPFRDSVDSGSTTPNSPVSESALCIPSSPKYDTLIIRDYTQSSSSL

IC50 [nM] | Compound
< 500 | N#Cc1cc(F)cc(N2CC3CC3(C#Cc3ccccn3)C2)c1 (stereo not drawn) [Example Compound 1, 3-fluoro-S-(1-(pyridin-2-ylethynyl)-3-azabicyclo[3.1.0]hexan-3-yl) benzonitrile]
< 500 | Fc1ccc(N2CC3CC3(C#Cc3ccccn3)C2)cc1 (centres unmarked) [Example Compound 2, 3-(4-fluorophenyl)-1-(pyridin-2-ylethynyl)-3-azabicyclo[3.1.0]hexane]
1000 to 5000 | FC(F)(F)Oc1ccc(N2CC3CC3(C#Cc3ccccn3)C2)cc1 (centres unmarked) [Example Compound 3, 1-(pyridin-2-ylethynyl)-3-(4-(trifluoromethoxy)phenyl)-3-azabicyclo[3.1.0]hexane]
< 500 | Fc1cncc(N2CC3CC3(C#Cc3ccccn3)C2)c1 (centres unmarked) [Example Compound 4]
< 500 | O=S(=O)(c1ccccc1)N1CC2CC2(C#Cc2ccccn2)C1 (centres unmarked) [Example Compound 5, 3-(phenylsulfonyl)-1-(pyridin-2-ylethynyl)-3-azabicyclo[3.1.0]hexane]
< 500 | Fc1ccc(N2CC3CC3(C#Cc3ccccn3)C2)nc1 (centres unmarked) [Example Compound 6, 3-(5-fluoropyridin-2-yl)-1-(pyridin-2-ylethynyl)-3-azabicyclo[3.1.0]hexane]
< 500 | N#Cc1cc(F)cc(N2CC3CC3(C#Cc3cnccn3)C2)c1 (centres unmarked) [Example Compound 7, 3-fluoro-5-(1-(pyrazin-2-ylethynyl)-3-azabicyclo[3.1.0]hexan-3-yl) benzonitrile]
< 500 | N#Cc1cc(F)cc(N2CC3CC3(C#Cc3ncccn3)C2)c1 (centres unmarked) [Example Compound 8, 3-fluoro-5-(1-(pyrimidin-2-ylethynyl)-3-azabicyclo[3.1.0]hexan-3-yl) benzonitrile]
1000 to 5000 | Cc1cccnc1C#CC12CC1CN(c1cc(F)cc(C#N)c1)C2 (centres unmarked) [Example Compound 9]
< 500 | C(#CC12CC1CN(c1ccccc1)C2)c1ccccn1 (centres unmarked) [Example Compound 10, 3-phenyl-1-(pyridin-2-ylethynyl)-3-azabicyclo[3.1.0]hexane]
< 500 | N#Cc1cc(F)cc(N2CC3CC3(C#Cc3cccnn3)C2)c1 (centres unmarked) [Example Compound 11, 3-fluoro-5-(1-(pyridazin-3-ylethynyl)-3-azabicyclo[3.1.0]hexan-3-yl)benzonitrile]
< 500 | N#Cc1cc(F)cc(N2CC3CC3(C#Cc3ccnc(Cl)c3)C2)c1 (centres unmarked) [Example Compound 12, 3-(1-((2-chloropyridin-4-yl)ethynyl)-3-azabicyclo[3.1.0]hexan-3-yl)-S-fluorobenzonitrile]
< 500 | Cc1cccc(C#CC23CC2CN(c2cc(F)cc(C#N)c2)C3)n1 (centres unmarked) [Example Compound 13, 3-fluoro-5-(1-((6-methylpyridin-2-yl)ethynyl)-3-azabicyclo[3.1.0]hexan-3-yl) benzonitrile]
< 500 | COc1cccc(C#CC23CC2CN(c2cc(F)cc(C#N)c2)C3)n1 (centres unmarked) [Example Compound 15, 3-fluoro-5-(1-((6-methoxypyridin-2-yl)ethynyl)-3-azabicyclo[3.1.0]hexan-3-yl) benzonitrile]
< 500 | Fc1ccccc1N1CC2CC2(C#Cc2ccccn2)C1 (centres unmarked) [Example Compound 16, 3-(2-fluorophenyl)-1-(pyridin-2-ylethynyl)-3-azabicyclo[3.1.0]hexane]
< 500 | Clc1ccccc1N1CC2CC2(C#Cc2ccccn2)C1 (centres unmarked) [Example Compound 17, 3-(2-chlorophenyl)-1-(pyridin-2-ylethynyl)-3-azabicyclo[3.1.0]hexane]
< 500 | Clc1cccc(N2CC3CC3(C#Cc3ccccn3)C2)c1 (centres unmarked) [Example Compound 18, 3-(3-chlorophenyl)-1-(pyridin-2-ylethynyl)-3-azabicyclo[3.1.0]hexane]
500 to 1000 | Clc1ccc(N2CC3CC3(C#Cc3ccccn3)C2)cc1 (centres unmarked) [Example Compound 19, 3-(4-chlorophenyl)-1-(pyridin-2-ylethynyl)-3-azabicyclo[3.1.0]hexane]
< 500 | Fc1cc(Cl)cc(N2CC3CC3(C#Cc3ccccn3)C2)c1 (centres unmarked) [Example Compound 20, 3-(3-chloro-5-fluorophenyl)-1-(pyridin-2-ylethynyl)-3-azabicyclo[3.1.0]hexane]
500 to 1000 | Fc1cc(Cl)ccc1N1CC2CC2(C#Cc2ccccn2)C1 (centres unmarked) [Example Compound 21, 3-(4-chloro-2-fluorophenyl)-1-(pyridin-2-ylethynyl)-3-azabicyclo[3.1.0]hexane]
500 to 1000 | Fc1cc(N2CC3CC3(C#Cc3ccccn3)C2)ccc1Cl (centres unmarked) [Example Compound 22, 3-(4-chloro-3-fluorophenyl)-1-(pyridin-2-ylethynyl)-3-azabicyclo[3.1.0]hexane]

IC50 [nM] | Compound
< 500 | N#Cc1ccnc(N2CC3CC3(C#Cc3ccccn3)C2)c1 (centres unmarked) [Example Compound 23, 2-(1-(pyridin-2-ylethynyl)-3-azabicyclo[3.1.0]hexan-3-yl)isonicotinonitrile]
1000 to 5000 | C(#CC12CC1CN(c1ccc3[nH]ccc3n1)C2)c1ccccn1 (centres unmarked) [Example Compound 24, 5-(1-(pyridin-2-ylethynyl)-3-azabicyclo[3.1.0]hexan-3-yl)-1H-pyrrolo[3,2-b]pyridine]
1000 to 5000 | C(#CC12CC1CN(c1ccc3[nH]cnc3c1)C2)c1ccccn1 (centres unmarked) [Example Compound 25, 5-(1-(pyridin-2-ylethynyl)-3-azabicyclo[3.1.0]hexan-3-yl)-1H-benzo[d]imidazole]
< 500 | O=C(c1cccc(Cl)c1)N1CC2CC2(C#Cc2ccccn2)C1 (centres unmarked) [Example Compound 26, (3-chlorophenyl)(1-(pyridin-2-ylethynyl)-3-azabicyclo[3.1.0]hexan-3-yl)methanone]
< 500 | O=C(c1ccccn1)N1CC2CC2(C#Cc2ccccn2)C1 (centres unmarked) [Example Compound 27, pyridin-2-yl(1-(pyridin-2-ylethynyl)-3-azabicyclo[3.1.0]hexan-3-yl)methanone]
< 500 | O=C(c1ccccc1)N1CC2CC2(C#Cc2ccccn2)C1 (centres unmarked) [Example Compound 28, phenyl(1-(pyridin-2-ylethynyl) 3-azabicyclo[3.1.0]hexan-3-yl)methanone]
< 500 | O=C(Cc1ccccc1)N1CC2CC2(C#Cc2ccccn2)C1 (centres unmarked) [Example Compound 29, 2-phenyl-1-(1-(pyridin-2-ylethynyl)-3-azabicyclo[3.1.0]hexan-3-yl)ethanone]
< 500 | O=C(c1ccccc1Cl)N1CC2CC2(C#Cc2ccccn2)C1 (centres unmarked) [Example Compound 30, (2-chlorophenyl) (1-(pyridin-2-ylethynyl)-3-azabicyclo[3.1.0]hexan-3-yl)methanone]
< 500 | CCCCC(=O)N1CC2CC2(C#Cc2ccccn2)C1 (centres unmarked) [Example Compound 31, 1-(1-(pyridin-2-ylethynyl)-3-azabicyclo[3.1.0]hexan-3-yl)pentan-1-one]
< 500 | O=C(CCc1ccccc1)N1CC2CC2(C#Cc2ccccn2)C1 (centres unmarked) [Example Compound 32, 3-phenyl-1-(1-(pyridin-2-ylethynyl)-3-azabicyclo[3.1.0]hexan-3-yl)propan-1-one]
< 500 | O=C(c1ccc(Cl)cc1)N1CC2CC2(C#Cc2ccccn2)C1 (centres unmarked) [Example Compound 33, (4-chlorophenyl)(1-(pyridin-2-ylethynyl)-3-azabicyclo[3.1.0]hexan-3-yl)methanone]
< 500 | O=S(=O)(c1cccc(Cl)c1)N1CC2CC2(C#Cc2ccccn2)C1 (centres unmarked) [Example Compound 34, 3-((3-chlorophenyl)sulfonyl)-1-(pyridin-2-ylethynyl)-3-azabicyclo[3.1.0]hexane]
< 500 | O=S(=O)(c1ccc(Cl)cc1)N1CC2CC2(C#Cc2ccccn2)C1 (centres unmarked) [Example Compound 35, 3-((4-chlorophenyl)sulfonyl)-1-(pyridin-2-ylethynyl)-3-azabicyclo[3.1.0]hexane]
< 500 | O=S(=O)(c1ccccc1Cl)N1CC2CC2(C#Cc2ccccn2)C1 (centres unmarked) [Example Compound 36, 3-((2-chlorophenyl)sulfonyl)-1-(pyridin-2-ylethynyl)-3-azabicyclo[3.1.0]hexane]
< 500 | Cc1ccc(S(=O)(=O)N2CC3CC3(C#Cc3ccccn3)C2)cc1 (centres unmarked) [Example Compound 37, 1-(pyridin-2-ylethynyl)-3-tosyl-3-azabicyclo[3.1.0]hexane]
< 500 | N#Cc1cccc(N2CC3CC3(C#Cc3ccccn3)C2)n1 (centres unmarked) [Example Compound 38, 6-(1-(pyridin-2-ylethynyl)-3-azabicyclo[3.1.0]hexan-3-yl)picolinonitrile]
< 500 | Cc1nc(C#CC23CC2CN(c2cc(F)cc(C#N)c2)C3)cs1 (centres unmarked) [Example Compound 39, 3-fluoro-5-(1-((2-methylthiazol-4-yl)ethynyl)-3-azabicyclo[3.1.0]hexan-3-yl)benzonitrile]
< 500 | N#Cc1cccc(N2CC3CC3(C#Cc3ccccn3)C2)c1 (centres unmarked) [Example Compound 40, 3-(1-(pyridin-2-ylethynyl)-3-azabicyclo[3.1.0]hexan-3-yl)benzonitrile]
< 500 | O=C(c1cccc(F)c1)N1CC2CC2(C#Cc2ccccn2)C1 (centres unmarked) [Example Compound 41, (3-fluorophenyl)-(1-(pyridin-2-ylethynyl)-3-azabicyclo[3.1.0]hexan-3-yl)methanone]
< 500 | O=S(=O)(c1ccccc1F)N1CC2CC2(C#Cc2ccccn2)C1 (centres unmarked) [Example Compound 42, 3-((2-fluorophenyl)sulfonyl)-1-(pyridin-2-ylethynyl)-3-azabicyclo[3.1.0]hexane]
